# Values quoted from earlier work in US20250312270A1, “READY-TO-INFUSE PHENYLEPHRINE COMPOSITIONS” (AMNEAL EU, LIMITED, priority 2023, published 2025).
# System: blood pressure
# Details: doses above 6 mcg/kg/min, intravenous continuous infusion, adult patients with septic or other vasodilatory shock
structure (smiles),measurement,value
"CNC[C@H](O)c1cccc(O)c1 [phenylephrine, (R)-3-Hydroxy-α-(methylaminomethyl)benzyl alcohol]",incremental increase in blood pressure,do not show significant incremental increase in blood pressure
